Experimental data: US12485174B2, “HDAC6-activated macrophages, compositions, and uses thereof” (The George Washington University, A Congressionally …, priority 2019, dated 2025)

Legend:
[1] = tested on: bone marrow-derived macrophages; experiment: SIINFEKL antigen cross-presentation (XPT) by polarized bone marrow derived macrophages, MHCI-SIINFEKL antibody, FACS; format: cell-based, mouse; settings: M1 polarized macrophages pre-treated with NextA, OVA peptide 24 hours
Procedure: FIG. 1 is a line graph showing the SIINFEKL antigen levels derived from OVA peptide and detected by MHCI-SIINFEKL specific antibody as measured by FACS in bone marrow-derived macrophages from wild type or HDAC6 KO (knockout) mice. Macrophages were pre-treated with Nexturastat A (NextA) 5 μM and then polarized for 24 hours.
FIG. 2 is a graph showing the MHCI-SIINFEKL levels in polarized macrophages derived from wild-type mice pre-treated with NextA and incubated with OVA peptide for 24 hours.
Bone marrow derived macrophages: For macrophage isolation, bone marrow from 6-12 weeks old C57BL/6 mouse was used following an IACUC approved protocol. Briefly, femurs and tibia bones were isolated after removing the skeletal muscles. The bone marrow was flushed with RPMI complete medium supplemented with non-essential amino acids. A single-cell suspension of bone marrow was prepared with repeated pipetting and incubated with 20 ng/mL of mouse recombinant M-CSF (Biolegend) at 37° C. for 4 days to differentiate into macrophages. […]
Endogenous peptides are usually presented through MHC-I to CD8 T-cells and exogenous (from other cells such as tumors) peptides through MHC-II to CD4 T-cells. […] Taking advantage of a highly specific antibody recognizing MHC-I loaded with SIINFEKL peptide, efficiency of antigen XPT was determined. […]

[2] = tested on: SM1-OVA murine melanoma cells; experiment: MHCI and MHCI-SIINFEKL levels in SM1-OVA melanoma cells by flow cytometry; format: cell-based, mouse; settings: for MHC-I mediated SIINFEKL antigen presentation: over time
Procedure: FIG. 3 is a bar graph showing the MHCI and MHCI-SIINFEKL levels after SM1-OVA (SM1 cells expressing OVA peptide) melanoma cells were treated with 5 μM NextA for 24 hours. MHCI and MHCI-SIINFEKL levels were measured by FACS.
FIG. 25 is a panel of four bar graphs showing the MHCI-SIINFEKL levels when SM1 cells stably expressing OVA (SM1-OVA cells) peptide are exposed to 4 Gy of radiation, NextA, or a combination at the times indicated. MHC-I mediated SIINFEKL antigen presentation was measured by flow cytometry.
Cell culture: SM1 murine melanoma cells were obtained from Dr. A. Ribas at the University of California, Los Angeles, and cultured in an incubator in RPMI 1640, 1% penicillin-streptomycin, and 10% fetal bovine serum at 37° C. with 5% CO2.
(§1) Flow cytometry: Flow cytometry was performed following the protocol described previously. Knox et al., Sci Rep. 2019 Oct. 10; 9(1):14824. doi: 10.1038/s41598-019-51403-6. Briefly, mice were euthanized following the IACUC protocol, and tumor cells were processed into a single cell suspension for analysis by flow cytometry with tumor digestion buffer. The following antibodies were used to stain cell surface markers expressed by different immune cells. All the antibodies were purchased from Biolegend (San Diego, CA) unless otherwise specified. Myeloid cell surface markers are as follows: APC anti-mouse CD80 (clone 16-10A1), PE/Cy7 anti-mouse CD206 (MMR) (clone C068C2), APC/Fire™ 750 anti-mouse CD45.2 (clone 104), FITC anti-mouse H-2 (clone M1/42), Brilliant Violet 785™ anti-mouse F4/80 (clone BM8), and Alexa Fluor® 700 anti-mouse CD3 (clone 17A2). To distinguish between MHCI and MHCI-bound to SIINFEKL, we used APC anti-mouse H-2Kb bound to SIINFEKL antibody (clone 25-D1.16). Multi-color flow data acquisition was performed on BD Celesta, and data analysis was performed with FlowJo software (version 10.3). Statistical analyses were performed with GraphPad Prism Software (version 7.03).
The combination of radiation and HDAC6 inhibition increases antigen presentation in a time dependent manner. […] Radiation with HDAC6 inhibition increases antigen presentation in tumor cells. FIG. 25. The sequencing of NextA and radiation treatment for effective antigen presentation in tumor cells is show in FIG. 26.

[3] = tested on: Bone marrow derived macrophages (BMDMs); experiment: Polarization of bone marrow derived macrophages to M1 (LPS/IFNγ) or M2 (IL4/IL13) phenotype by flow cytometry; format: cell-based, mouse
Procedure: (§2) Bone marrow derived macrophages: For macrophage isolation, bone marrow from 6-12 weeks old C57BL/6 mouse was used following an IACUC approved protocol. Briefly, femurs and tibia bones were isolated after removing the skeletal muscles. The bone marrow was flushed with RPMI complete medium supplemented with non-essential amino acids. A single-cell suspension of bone marrow was prepared with repeated pipetting and incubated with 20 ng/mL of mouse recombinant M-CSF (Biolegend) at 37° C. for 4 days to differentiate into macrophages.
as §1
Bone marrow derived macrophages (BMDMs) isolated from femur and tibia of C57BL/6 mouse were differentiated into macrophages with M-CSF. These naïve macrophages were pre-treated with NextA and polarized to M1 macrophages with LPS/IFNγ or M2 macrophages with IL4/IL13.

[4] = tested on: bone marrow derived macrophages; experiment: Gene expression of polarization markers, cytokines and antigen processing genes in macrophages by quantitative real-time PCR; format: cell-based, mouse
Procedure: Quantitative analysis of gene expression. Total RNA was isolated from cells following the manufacturer's instructions of QIAzol lysis reagent (Qiagen, 79306). RNA quantification was done using a NanoDrop One spectrophotometer (NanoDrop Technologies). Samples with absorbance at 260/280 nm ratios over 1.9 were used for cDNA synthesis with the iScript cDNA synthesis kit (Bio-Rad, 1708891). Synthesized cDNA from 1 μg of total RNA was diluted 1:10 with nuclease-free water. The quantitative PCR analysis was performed using iQ SYBR Green Supermix (Bio-Rad, 1708882) on a CFX96 real-time system (Bio-Rad). Gene expression analysis was performed using the 2^−ΔΔCt method, and target mRNA levels were normalized to GAPDH expression. Cycling conditions were used as per the manufacturer's instructions. Single PCR product amplification was confirmed by melting curve analysis in all the experiments performed.
as §2
Further validation of M2 polarization markers at gene expression levels by quantitative real-time PCR indicate that Arginase I, IL-10 and TGFβ, which are tumor-promoting factors, were decreased. FIG. 9, FIG. 10, and FIG. 11. The expression of M1 polarization markers and anti-tumor, pro-inflammatory cytokines such as TNFα and IL-1B were increased. FIG. 12 and FIG. 13.

[5] = M1 macrophages compared to M0 after treatment
[6] = pre-treated polarized macrophages

## CCCCN(Cc1ccc(C(=O)NO)cc1)C(=O)Nc1ccccc1 [NextA, Nexturastat A]
[1]
  M1 XPT (cross-presentation of SIINFEKL peptide by MHC-I): increased
Macrophages
  concentration over which high cytotoxicity is induced: over 5 μM
[2]; 5 μM NextA for 24 hours
  presence of MHC I: increased
  presence of SIINFEKL-loaded MHC-I: increased
[2]; NextA alone
  MHC-I mediated SIINFEKL antigen presentation: time dependent increases
[2]; NextA in combination with 4 Gy of radiation
  MHC-I mediated SIINFEKL antigen presentation: time dependent increases
[3]; data not shown
  pro-tumoral M2 phenotype of macrophages: reduced
[3]; pre-treatment of naïve macrophages, then IL4/IL13
  polarization of M2 macrophages: decreased
[3]; pre-treatment of naïve macrophages, then LPS/IFNγ
  polarization of M1 macrophages: did not affect
[4]; M0 macrophages
  IL1 beta expression (M1 pro-inflammatory cytokine): increases
  IL10 expression (M2 anti-inflammatory cytokine): decreased
  IL12 expression (M1 pro-inflammatory cytokine): increases
  TGF beta expression (M2 anti-inflammatory cytokine): decreased
  TNF alpha expression (M1 pro-inflammatory cytokine): increases
[4]; [5]
  ERAP1 gene expression: increased
  TAP1 gene expression: increased
  TAP2 gene expression: increased
  TAPBP gene expression: increased
[4]; [6]
  Arginase I gene expression (M2 polarization marker): decreased
  IL-1B gene expression (M1 marker): increased
  IL-10 gene expression (M2 marker): decreased
  TGFβ gene expression (M2 marker): decreased
  TNFα gene expression (M1 marker): increased
